Experimental data taken from publication PMC4682813, “The Aminosteroid Derivative RM-133 Shows In Vitro and In Vivo Antitumor Activity in Human Ovarian and Pancreatic Cancers” (PLoS ONE, 2015).

Experiments:
OVCAR-3 cells = test: MTS cell proliferation (viability) assay, OVCAR-3; format: cell-based; conditions: Homo sapiens, 72 h incubation
Method: (§1) Human ovarian (OVCAR-3) and pancreatic (PANC-1) cancer cells were purchased from the American Type Culture Collection (ATCC, Rockville, MD) and maintained in exponential growth in a 5% CO2 humidified atmosphere at 37°C. OVCAR-3 cells were routinely grown in RPMI-1640 medium (Sigma, St. Louis, MO) supplemented with 20% FBS, L-glutamine (2 mM), antibiotics (100 IU penicillin/mL and 100 μg streptomycin/mL), insulin (50 ng/mL), and estradiol (1 nM). For OVCAR-3 cell proliferation assays, the medium used was identical, except for the omission of estradiol. […]
(§2) The cell proliferation assay was performed with a colorimetric method using 3-(4,5-dimethylthiazol-2-yl)-5-(3-carboxymethoxyphenyl)2-(4-sulfophenyl)-2H-tetrazolium (MTS) (Cell Titer 96 Aqueous, Promega, Madison, WI). […] MTS is converted to water-soluble colored formazan by dehydrogenases present in metabolically active cells, and therefore, the MTS assay allows the immediate determination of absorbance of the soluble formazan directly in the cell medium and thus the measurement of viable cells. The A 490 of the medium was determined using a 96-well microplate reader INFINITE 200 PRO series (TECAN, Männedorf, Switzerland). The IC50 value of RM-133 was determined for each of the two cell lines using the GraphPad Prism 7 software (GraphPad Software, Inc., San Diego, CA).

CYP2D6 = test system: CYP2D6; parameters: method as in PMID 25300820; conditions: low to moderate risk of drug-drug interactions; cited from earlier work
PANC-1 cells = test: MTS cell proliferation (viability) assay, PANC-1; format: cell-based; conditions: Homo sapiens, 72 h incubation
Method: as §1, §2

[1] = Plasma concentration of RM-133 with different vehicles; format: in vivo, Balb/c mice; conditions: female, Balb/c, mouse, sc, 120 mg/kg, single s.c. 120 mg/kg in 0.1 mL
[2] = Plasma concentration of RM-133 in mice at different injection doses; format: in vivo, Balb/c mice
Method: Eight ♀ Balb/c mice weighing approximately 20 g were separated in 4 groups. Mice in each group received a single s.c. injection of RM-133 (30, 60, 120, or 480 mg/kg). The vehicle used was propylene glycol:EtOH (92:8) and injection volume was 0.1 mL for all concentrations except at 480 mg/kg, where 0.2 mL was used. Blood was collected by cardiac puncture after 12 h, and the plasma concentration of RM-133 determined by LC-MS/MS as above.

[3] = test system: OVCAR-3 tumors xenografted in nu/nu nude mice; test: OVCAR-3 xenografts in nude mice, propylene glycol-based vehicle (first part); format: in vivo; conditions: 60 mg/kg s.c. daily, propylene glycol:EtOH (92:8)
Text: All in vivo experiments were approved by our Institutional Animal Care and Use Committee (Comités de protection des animaux de l’Université Laval) and carried out according to the guidelines of the Canadian Council on Animal Care. For xenografts, homozygous ♀ nu/nu nude mice (24–42 days old) were purchased from Charles River Inc. (Saint-Constant, QC, Canada) and housed (four to five) in vinyl micro-isolated ventilated cages, equipped with air lids, which were kept in laminar airflow hoods and maintained under pathogen-limiting conditions. During the acclimatization and study period, the animals were housed under a controlled environment at 22 ± 3°C, with 50 ± 20% relative humidity and light set at 12 h/day (light on at 07:15). Rodent food (Rodent diet #T.2018.15, Harlan Teklad, Madison, WI) and water were provided ad libitum. For nu/nu nude mice, food and water were sterilized prior to dispensing to the animals. Standard Balb/c mice were used for pharmacokinetic studies. Animals were anesthetized with isoflurane and killed by cervical dislocation.
Twenty-two ♀ nu/nu nude mice (22–24 g) were inoculated s.c. with 5×10^6 OVCAR-3 cells (in 0.1 mL of growth medium containing 30% Matrigel (BD Biosciences, Bedford, MA)) into both flanks in each mouse via a 2.5-cm long 22-gauge needle. After 11 days, tumor-bearing mice were randomly assigned to two groups of 11 mice each according to tumor size, i.e. a control group (n = 12 tumors) and a treated group (n = 15 tumors). RM-133 was administered s.c. daily at 60 mg/kg in 0.1 mL of propylene glycol:EtOH (92:8). Animals in the control group received 0.1 mL of vehicle alone. Tumor size was measured twice weekly using a caliper. Two perpendicular diameters (L and W) were measured, and the tumor area (in mm^2) was calculated using the formula (L/2) x (W/2) x π. Animals were weighed at various intervals during the experiment.

[4] = vehicle #7 sesame oil (89.7%) EtOH (7.8%) benzyl benzoate (1%) benzyl alcohol (1%) Tween 80 (0.5%)
[5] = vehicle #8 soya oil (92%) EtOH (8%)

For `C#C[C@]1(O)CC[C@H]2[C@@H]3CC[C@H]4C[C@H](O)[C@@H](N5CCN(C(=O)[C@@H]6CCCN6C(=O)c6ccc7ccccc7n6)CC5)C[C@]4(C)[C@H]3CC[C@@]21C` [RM-133], the IC50 (OVCAR-3 cells) is listed as 800 nM, the “inhibition of CYP2D6” value (CYP2D6) is listed as “weak inhibition” and the IC50 (PANC-1 cells) is listed as 300 nM. It also gave a concentration at 3 h [1, 4] of 302 ± 7 ng/mL, a concentration at 12 h [1, 4] of 214 ± 8 ng/mL and a concentration at 3 h [1, 5] of 137 ± 2 ng/mL. The concentration at 12 h [1, 5] was 52 ± 1 ng/mL, the tolerance ([2]; 480 mg/kg s.c. in 0.2 mL propylene glycol:EtOH (92:8), motion discomfort, same with vehicle alone) was “not tolerated” and the “plasma concentration as percentage of the injected amount” value ([2]; 12 h after single s.c. 30 mg/kg, propylene glycol:EtOH (92:8)) was 17%. For the same compound, the concentration at 12 h ([2]; female, mouse, plasma, sc, 12 h after single s.c. 30 mg/kg, propylene glycol:EtOH (92:8), Balb/c mice) was 167 ng/mL, the “effect on body weight” value ([3]; 21-day treatment) was “no apparent effect on body weight” and the “day from which treated tumors were significantly smaller than control” value [3] was 15 days. For the same compound, the “difference in tumor size between treated and control groups (tumor growth inhibition)” value ([3]; end of treatment (21 days)) was 60%.
